This test deals with Neurotensin receptor type 1 (Homo sapiens) (UniProt P30989). The test can be described thus: NTR1 agonist-evoked calcium mobilization, SAR follow-up, cell-based, fluorescence, calcium flux, dose response (AID 602459). As to conditions: NTR1-expressing cells, agonist mode. (Calcium flux is commonly read through the fluorescence of an indicator in the cells.)
Sequence of Neurotensin receptor type 1 (Homo sapiens) (P30989 whole entry, looked up): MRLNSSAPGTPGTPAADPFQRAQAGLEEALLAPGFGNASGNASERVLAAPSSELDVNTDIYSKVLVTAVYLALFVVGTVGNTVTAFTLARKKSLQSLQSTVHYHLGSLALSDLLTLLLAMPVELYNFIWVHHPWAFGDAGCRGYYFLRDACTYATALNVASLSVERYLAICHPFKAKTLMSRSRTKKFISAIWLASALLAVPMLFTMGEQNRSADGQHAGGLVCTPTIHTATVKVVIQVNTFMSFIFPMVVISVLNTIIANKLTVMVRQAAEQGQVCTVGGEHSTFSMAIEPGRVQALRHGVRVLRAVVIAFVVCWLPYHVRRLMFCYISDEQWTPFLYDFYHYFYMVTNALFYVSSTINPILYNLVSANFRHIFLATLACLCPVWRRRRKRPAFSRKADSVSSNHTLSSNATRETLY
The EC50 is the concentration needed to bring the measured effect to its halfway point. Turning to `COc1cc2c3nnc(-c4ccc(F)cc4)c-3cn(Cc3cccc(C)c3)c2cc1OC`, the EC50 is 1500 nM. The same measure for `COc1cccc(OC)c1-c1cc(C(=O)N[C@@H](CC(C)C)C(=O)O)nn1-c1ccnc2cc(Cl)ccc12`: < 156 nM; for `COc1cccc(OC)c1-c1nc(C(=O)N[C@@H](CC(C)C)C(=O)O)cn1-c1ccnc2cc(Cl)ccc12`: 298 nM.

(Values after PubChem BioAssay AID602459 (Sanford-Burnham Center for Chemical Genomics, 2012).)
